Results from patent US10548935B2, “Composition and method for preventing, reducing, alleviating or treating idiopathic vomiting” (Mars, Incorporated, priority 2013, dated 2020).
Where a name gives a salt, the structure may show the parent alone.

Assays:
NK-1 receptor = target: T1, NK-1 receptor (Homo sapiens, UniProt P25103); assay: Tango GPCR cell-based assay, TACR1-bla U2OS cells, NK-1 receptor inhibitors; conditions: 1 nM SAR9 Substance P agonist
T1 construct: host or cells: U2OS (Tango TACR1-bla)
T1 sequence (P25103 whole entry): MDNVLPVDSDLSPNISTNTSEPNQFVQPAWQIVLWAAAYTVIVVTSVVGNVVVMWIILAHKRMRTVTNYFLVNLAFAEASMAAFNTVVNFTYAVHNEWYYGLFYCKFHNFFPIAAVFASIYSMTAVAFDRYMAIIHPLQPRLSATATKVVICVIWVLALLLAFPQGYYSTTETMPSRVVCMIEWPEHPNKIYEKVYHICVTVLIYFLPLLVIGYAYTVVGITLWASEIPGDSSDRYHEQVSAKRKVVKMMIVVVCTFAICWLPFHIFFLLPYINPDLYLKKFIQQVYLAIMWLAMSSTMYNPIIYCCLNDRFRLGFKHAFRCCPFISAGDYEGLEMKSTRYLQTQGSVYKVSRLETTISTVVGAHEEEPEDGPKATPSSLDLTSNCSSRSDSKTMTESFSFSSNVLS
Protocol: Various known high through-put screening assays can also be used to determine the inhibitory effects of a material on the NK-1 receptors.
One exemplary assay is the Tango™ G-Protein Coupled Receptors (GPCR) cell-based assays by Invitrogen. First, TACR1-bla U2OS cells (from Invitrogen) are cultured in McCoy's medium. The cultured cells are then plated in DMEM into 96-well plates (15,125 cells/well in 90 uL/well). After 16-24 hours, the cells are treated with test materials or positive control antagonist (which is 100 nM Aprepitant) and then incubated for 30-60 minutes at 37° C. in 5% CO2. Subsequently, the cells are treated with 1 nM SAR9 Substance P agonist and incubated again for 5 hours at 37° C. in 5% CO2. The plates are removed from the incubator and equilibrated at room temperature for 15 minutes. During the equilibration step, the LiveBlazer substrate detection solution (from Invitrogen) is prepared. Six times of substrate mixture is added to each well, followed by incubating the plates in the dark at room temp for 2 hours. The plates are read by the Envision microplate reader in 2 channels using the “Geneblazer 451” protocol, which include a blue channel (Excitement at 405 and Emission at 460) and a green channel (Excitement at 405 and Emission at 535).
FIGS. 45-70 show the NK-1 dosage response curves of compounds described hereinabove with high NK-1 inhibitory effect.

h5HT3A receptor = target: T2, h5HT3A receptor (Homo sapiens, UniProt P46098); assay: Assays for screening 5-HT3a receptor inhibitors (FLIPR calcium assay or aequorin-assisted serotonin receptor assay; dosage response curves); assay type: cell-based
T2 construct: expressed in transfected cells
T2 sequence (P46098 24-478): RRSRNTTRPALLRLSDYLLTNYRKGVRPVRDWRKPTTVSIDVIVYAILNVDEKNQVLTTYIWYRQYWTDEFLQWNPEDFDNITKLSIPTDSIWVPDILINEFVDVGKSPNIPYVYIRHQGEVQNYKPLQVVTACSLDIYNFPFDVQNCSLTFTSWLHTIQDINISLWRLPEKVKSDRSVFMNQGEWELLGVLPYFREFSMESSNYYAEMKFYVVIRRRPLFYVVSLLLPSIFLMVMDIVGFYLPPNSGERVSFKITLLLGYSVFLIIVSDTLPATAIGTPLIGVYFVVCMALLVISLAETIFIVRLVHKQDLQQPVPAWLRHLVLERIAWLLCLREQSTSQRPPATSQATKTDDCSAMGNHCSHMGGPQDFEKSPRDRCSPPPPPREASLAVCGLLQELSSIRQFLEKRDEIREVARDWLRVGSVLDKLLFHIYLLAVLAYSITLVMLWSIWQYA
From the text: Various known high through-put screening assays can be used to determine the inhibitory effects of a material on the 5-HT3a receptors.
Due to activation of 5HT3 receptor following calcium and sodium influx and the subsequent rapid intracellular calcium and sodium increase, a calcium indicator (e.g., Fluo-4 AM) or a sodium dye can therefore be readily used to detect influx Ca^+2 or Na^+ signal using the Flourometric Imaging Plate Reader (FLIPR) assay to identify agonists or antagonists of 5-HT3a receptors.
The 5-HT3a FLIPR assay can specifically be conducted by the following steps. First, […] (human embryonic kidney) cells stably expressed with h5HT3A receptor are grown in 16-18 ml growth medium in a 75 cm^2 flask for 2-3 days at 37° C. in a mammalian cell culture incubator with 5% CO2 and 90% humidity. The growth medium may contain, for example, DMEM/F12 (1:1, Invitrogen 11039) supplemented with 10% FBS (fetal bovine serum), 100 μg/ml Antibiotic/Antimycotic, and 150 ug/ml G418. The cell medium is then transferred to a 50 ml tube, and the cells are washed with 10 ml PBS. Subsequently, 2 ml of 0.05% Trypsin-EDTA is added to detach cells, and the above cell medium is added back to flask to inactivate trypsin. Next, the cells are transferred back to the above 50 ml tube, which is centrifuged at 850 rpm for 3 minutes to remove medium. The cells obtained from centrifugation are then re-suspended with growth medium at 1-1.5 ml per flask cells. One vial of Fluo-4 AM (calcium indicator, 50 ug) is subsequently dissolved with 20 ul of Pluronic F-127, and 10 ul of Fluo-4 AM solution per flask cells is added (1 vial of Fluo-4 AM solution, 20 ul, is good for 2 flask of cells). The cells are then stained with Fluo-4 AM for 30 min at room temperature with gently shaking on a shaker, followed by addition of 45 ml of the assay buffer [HBSS with CaCl2 and MgCl2 (Invitrogen 14025), 20 mM HEPES, pH7.2] to wash cells once. Centrifugation is carried out once more at 850 rpm for 3 minutes to remove assay buffer. The resulting cell pellet is again re-suspended in Assay buffer (per flask cells with 18-20 ml assay buffer). Ninety microliters of cells (50K cells/well) is loaded in the 96-well plates that are pre-loaded with the compounds to be tested (10 ul of 1 mM test materials, the final concentration of the test materials will be 100 uM). The plates are placed at room temperature for 15-30 min in dark and then transferred to FLIPR-384 instrument (Molecular Devices). […] The calcium signal of the test plates is finally recorded by the FLIPR program. The average and standard deviations are calculated using Excel, and the background (buffer) is subtracted. The percentage (%) inhibition is then calculated as
[formula] A test material will be considered as having an inhibitory effect against the 5-HT3a receptor if the percentage inhibition calculated is greater than 40%.
Aequorin is a photo-protein originating from the Jellyfish Aequorea Victoria. It is initially translated as an apo-enzyme requiring the hydrophobic group coelenterazine to initiate the conversion to aequorin. Upon binding of calcium, the coelenterazine is oxidized by aequorin into coelenteramide (BFP) resulting in the emission of blue light and CO2. Therefore, it is particularly useful for visualizing or detecting influx Ca^+2 signal.
After 18-24 h of culture, the cells are detached gently by flushing with their cell culture medium. Washing with an additional 10 mLs of cell culture media will ensure that optimum number of cells is captured. The cells are then centrifuged at 150×g, counted and re-suspended at 1×10^6 cells/mL in BSA medium [DMEM/Ham's F12 (with 15 mM HEPES, L-glutamine, without phenol red) culture medium (Invitrogen, Cat. No. 11039-021)+10% protease-free BSA (Sigma Aldrich, Cat. No. A9205) in H2O with a final BSA concentration of 0.1%] in a Falcon tube. Coelenterazine is added at a final concentration of 5 μM in assay medium.

Molecule	NK-1 receptor inhibitory effect (NK-1 receptor)	cell toxicity (Cell toxicity)	5-HT3a receptor inhibitory effect (h5HT3A receptor)
CCCCCCCCCCCCCC[C@@H](O)[C@@H](O)[C@@H](N)CO [Phytosphingosine]	surprisingly high	little or no	–
CCCCOC(=O)CC(O)(CC(=O)OCCCC)C(=O)OCCCC [Tributyl citrate]	–	little or no	surprisingly high
CCCCCCCCCCC/C=C\CCCCC(=O)O [Petroselinic acid]	–	little or no	surprisingly high
CCCCCCCC1CCCC(=O)O1 (stereo not shown) [Delta-dodecalactone]	–	little or no	surprisingly high
c1ccc(CCCc2ccccn2)cc1 [Cortex pyridine, 2-(3-phenylpropyl)pyridine]	–	little or no	surprisingly high
Vetiverol	–	little or no	surprisingly high
OCCCCCCCCCCCCCCO [1,14-Tetradecanediol]	–	little or no	surprisingly high
CC(=O)C=Cc1ccccc1 [Benzylidenacetone]	surprisingly high	–	–
CCCCCCCCCC1CCCC(=O)O1 (stereo not shown) [Delta-tetradecalactone]	–	little or no	surprisingly high
CCCCCC(=Cc1ccccc1)CO [Alpha-amylcinnamyl alcohol]	–	little or no	surprisingly high
CC(=O)/C=C/C1C(C)=CCCC1(C)C (stereo not drawn) [Alpha-lonone]	–	little or no	surprisingly high
O=c1cc(-c2ccccc2)oc2ccccc12 [Flavone]	–	little or no	surprisingly high
C=C1CC[C@H](O)C/C1=C/C=C1\CCC[C@]2(C)[C@@H]([C@H](C)CCCC(C)C)CC[C@@H]12 [Cholecalciferol VD3, Cholecalciferol]	–	–	surprisingly high
CC/C=C/C=C/C=O [Trans,trans-2,4-heptadienal]	surprisingly high	little or no	–
O=C(/C=C/C=C/c1ccc2c(c1)OCO2)N1CCCCC1 [Piperine]	–	little or no	–
CCCOC(=O)c1ccc(O)cc1 [N-propyl-4-hydroxybenzoate]	–	–	surprisingly high
CC(C)[C@@H]1CC[C@@H](C)C[C@H]1OCC(O)CO (stereo partly shown) [Menthoxypropanediol]	–	–	surprisingly high
CCCCOCc1ccc(O)c(OC)c1 [Vanillyl butyl ether]	–	little or no	surprisingly high

Molecule	NK-1 receptor inhibitory effect (NK-1 receptor)	cell toxicity (Cell toxicity)	5-HT3a receptor inhibitory effect (h5HT3A receptor)
CCCCCC/C=C\CCCCCCCC(=O)O [Palmitoleic acid]	–	little or no	surprisingly high
Cc1cc2nc3c(=O)[nH]c(=O)nc-3n(C[C@H](O)[C@H](O)[C@H](O)CO)c2cc1C [Riboflavin VB2, Riboflavin]	–	–	surprisingly high
O=C(/C=C/c1ccccc1O)c1ccc(O)cc1O [2,2′,4′-trihydroxy-chalcone]	surprisingly high	little or no	–
O=c1c(-c2ccc(O)cc2)coc2cc(O)cc(O)c12 [Genistein]	surprisingly high	little or no	–
CCCCCCCC1CC(C)OC1=O (stereo not shown) [3-heptyldihydro-5-methyl-2(3H)-furanone]	–	little or no	surprisingly high
CC(C)=CCC[C@](C)(O)C1CC=C(C)CC1 (stereo partly shown) [Bisabolol]	–	little or no	surprisingly high
CCCCCC1C(=O)CCC1CC(=O)OC (stereo not shown) [Methyl dihydrojasmonate]	–	little or no	surprisingly high
CCOc1ccc2c(c1)C(C)=CC(C)(C)N2 [Ethoxyquin]	–	little or no	surprisingly high
Cc1c(O)ccc(O)c1C [2,3-dimethyl-1,4-benzenediol]	–	little or no	surprisingly high
O=C(CCc1ccc(O)cc1)c1c(O)cc(O)cc1O [Phloretin]	–	little or no	surprisingly high
COc1ccc(-c2coc3cc(O)cc(O)c3c2=O)cc1 [Biochanin A]	–	little or no	surprisingly high
CC(C)=CCCC(C)=CCCC(C)=CC=O [Farnesal]	–	little or no	surprisingly high
C[C@@H]1CC[C@H]2C(C)(C)[C@H]3C[C@@]12CC[C@@]3(C)O [(+)-cedrol]	–	little or no	surprisingly high
CCCCCCCCC(=O)NCc1ccc(O)c(OC)c1 [Nonivamide]	–	little or no	surprisingly high
CC1=C(CCC(=O)O)c2cc3[nH]c(cc4nc(cc5[nH]c(cc1n2)c(C)c5C(C)O)C(C)=C4C(C)O)c(C)c3CCC(=O)O (stereo not shown) [Hematoporphyrin dihydrochloride]	–	little or no	–
CCCCCCCCC1CCC(=O)O1 (stereo not shown) [Gamma-dodecalactone]	–	little or no	surprisingly high
CC/C=C\C/C=C\C/C=C\C/C=C\C/C=C\CCCC(=O)O [Eicosapentaenoic acid]	–	little or no	–
C=C(C)[C@@H]1CCC2=CC(=O)C[C@@H](C)[C@]2(C)C1 [Nootkatone]	–	little or no	surprisingly high
